As a reminder, the IC50 is the midpoint of a concentration-inhibition curve.

Data on seven molecules can be found in US20230233569A1 (Revolution Medicines, Inc., priority 2020, published 2023).

Where two headings read alike, the source gives them in different places.

What all share (assay): Ras-Raf disruption / FRET / MOA assay (BRAF RBD)
Format in all cases: biochemical

For one test, the target named is KRAS G12D (Homo sapiens, UniProt P01116+P62937, G12D). Particulars: with Cyclophilin A. An excerpt: (§1) Disruption of […] Ras-binding Domain (BRAF^RBD) Interaction with K-Ras by Compounds of the Invention (also Called a FRET Assay or an MOA Assay)
(§2) Note—The following protocol describes a procedure for monitoring disruption of K-Ras G12C (GMP-PNP) binding to BRAF^RBD by a compound of the invention. This protocol may also be executed substituting other Ras proteins or nucleotides, such as K-Ras G12D and K-Ras G13D.
(§3) The purpose of this biochemical assay was to measure the ability of test compounds to facilitate ternary complex formation between a nucleotide-loaded K-Ras isoform and Cyclophilin A; the resulting ternary complex disrupts binding to a BRAF^RBD construct, inhibiting K-Ras signaling through a RAF effector. Data is reported as IC50 values.
(§4) In assay buffer containing 25 mM HEPES pH 7.3, 0.002% Tween20, 0.1% BSA, 100 mM NaCl and 5 mM MgCl2, tagless Cyclophilin A, His6-K-Ras-GMPPNP, and GST-BRAF^RBD were combined in a 384-well assay plate at final concentrations of 25 μM, 12.5 nM, and 50 nM, respectively. Compound was present in plate wells as a 10-point 3-fold dilution series starting at a final concentration of 30 μM. After incubation at 25° C. for 3 hours, a mixture of anti-His Eu-W1024 and anti-GST allophycocyanin was then added to assay sample wells at final concentrations of 10 nM and 50 nM, respectively, and the reaction incubated for an additional 1.5 hours. […] Compounds that facilitate disruption of a K-Ras:RAF complex were identified as those eliciting a decrease in the TR-FRET ratio relative to DMSO control wells.

For another test, the target named is KRAS G12S (Homo sapiens, UniProt P01116+P62937, G12S). As to conditions: with Cyclophilin A.
Excerpt: as §1, §2, §3, §4

In a further test the target is KRAS G12V (Homo sapiens, UniProt P01116+P62937, G12V). Particulars: with Cyclophilin A.
Excerpt: as §1, §2, §3, §4

A further test has as its target KRAS G13C (Homo sapiens, UniProt P01116+P62937, G13C). As to conditions: with Cyclophilin A.
Excerpt: as §1, §2, §3, §4

Another test addresses KRAS G13D (Homo sapiens, UniProt P01116+P62937, G13D). As to conditions: with Cyclophilin A.
Excerpt: as §1, §2, §3, §4

Another test has as its target KRAS WT (Homo sapiens, UniProt P01116+P62937). As to conditions: with Cyclophilin A.
Excerpt: as §1, §2, §3, §4

Another test addresses NRAS G12C (Homo sapiens, UniProt P01111+P62937, G12C).
Excerpt: as §1, §2, §3, §4

The target in a further test is KRAS G12C (Homo sapiens, UniProt P01116+P62937, G12C). Particulars: with Cyclophilin A.
Excerpt: as §1, §2, §3, §4
The purpose of this biochemical assay is to measure the ability of test compounds to facilitate ternary complex formation between a nucleotide-loaded Ras isoform and cyclophilin A; the resulting ternary complex disrupts binding to a BRAF^RBD construct, inhibiting Ras signaling through a RAF effector.
In assay buffer containing 25 mM HEPES pH 7.3, 0.002% Tween20, 0.1% BSA, 100 mM NaCl and 5 mM MgCl2, tagless Cyclophilin A, His6-K-Ras-GMPPNP (or other Ras variant), and GST-BRAF^RBD are combined in a 384-well assay plate at final concentrations of 25 μM, 12.5 nM and 50 nM, respectively. Compound is present in plate wells as a 10-point 3-fold dilution series starting at a final concentration of 30 μM. After incubation at 25° C. for 3 hours, a mixture of Anti-His Eu-W1024 and anti-GST allophycocyanin is then added to assay sample wells at final concentrations of 10 nM and 50 nM, respectively, and the reaction incubated for an additional 1.5 hours. […] Compounds that facilitate disruption of a Ras:RAF complex are identified as those eliciting a decrease in the TR-FRET ratio relative to DMSO control wells.

[1] abbreviates: Ras-Raf disruption, read-out: KRAS G12D FRET data IC50.
[2] abbreviates: Ras-Raf disruption, read-out: KRAS G12S FRET data IC50.
Where [3] appears, read: Ras-Raf disruption, read-out: KRAS G12V FRET data IC50.
[4] abbreviates: Ras-Raf disruption, read-out: KRAS G13C FRET data IC50.
The mark [5] stands for this setting: Ras-Raf disruption, read-out: KRAS G13D FRET data IC50.
[6] abbreviates: Ras-Raf disruption, read-out: KRAS WT FRET data IC50.
[7] abbreviates: NRAS G12C, read-out: NRAS G12C FRET data IC50.
[8] abbreviates: Ras-Raf disruption, read-out: KRAS G12C FRET data IC50.

Sequence of KRAS G12C (P01116 1-169 isoform P01116-2 G12C limits assumed): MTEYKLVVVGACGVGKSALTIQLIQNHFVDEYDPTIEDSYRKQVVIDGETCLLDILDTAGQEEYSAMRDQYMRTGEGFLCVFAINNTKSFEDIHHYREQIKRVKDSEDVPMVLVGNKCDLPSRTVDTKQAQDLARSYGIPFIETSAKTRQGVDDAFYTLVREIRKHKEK
Sequence of KRAS G12C (P62937 whole entry): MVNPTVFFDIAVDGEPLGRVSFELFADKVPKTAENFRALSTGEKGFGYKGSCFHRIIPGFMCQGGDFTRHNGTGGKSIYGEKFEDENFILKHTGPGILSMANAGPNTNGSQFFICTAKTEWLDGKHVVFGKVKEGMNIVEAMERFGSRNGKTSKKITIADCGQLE
Sequence of KRAS G12V (P01116 1-169 isoform P01116-2 G12V limits assumed): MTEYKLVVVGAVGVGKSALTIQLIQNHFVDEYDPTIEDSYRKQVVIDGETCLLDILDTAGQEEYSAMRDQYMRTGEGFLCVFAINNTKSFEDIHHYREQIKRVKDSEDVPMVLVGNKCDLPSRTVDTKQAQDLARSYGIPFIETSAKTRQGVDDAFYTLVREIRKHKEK
Sequence of KRAS G12V (P62937 whole entry): as the sequence (P62937 whole entry) above
Sequence of KRAS G13C (P01116 1-169 isoform P01116-2 G13C limits assumed): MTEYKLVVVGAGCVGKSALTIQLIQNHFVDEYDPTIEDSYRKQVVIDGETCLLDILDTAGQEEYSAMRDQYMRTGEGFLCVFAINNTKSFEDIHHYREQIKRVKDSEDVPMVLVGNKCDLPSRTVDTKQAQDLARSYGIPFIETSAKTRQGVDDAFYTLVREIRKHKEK
Sequence of KRAS G13C (P62937 whole entry): as the sequence (P62937 whole entry) above
Sequence of KRAS G12S (P01116 1-169 isoform P01116-2 G12S limits assumed): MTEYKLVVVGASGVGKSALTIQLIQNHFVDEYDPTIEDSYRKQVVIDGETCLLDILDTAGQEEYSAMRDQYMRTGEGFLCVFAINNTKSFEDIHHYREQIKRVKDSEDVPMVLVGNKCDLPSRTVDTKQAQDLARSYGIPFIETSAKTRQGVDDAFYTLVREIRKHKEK
Sequence of KRAS G12S (P62937 whole entry): as the sequence (P62937 whole entry) above
Sequence of NRAS G12C (P01111 whole entry G12C): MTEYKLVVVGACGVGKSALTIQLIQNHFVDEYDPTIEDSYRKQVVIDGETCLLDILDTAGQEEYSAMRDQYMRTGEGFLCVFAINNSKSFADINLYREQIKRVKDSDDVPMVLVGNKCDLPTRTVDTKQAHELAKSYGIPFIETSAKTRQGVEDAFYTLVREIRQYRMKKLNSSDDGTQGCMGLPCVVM
Sequence of NRAS G12C (P62937 whole entry): as the sequence (P62937 whole entry) above
Sequence of KRAS G13D (P01116 1-169 isoform P01116-2 G13D limits assumed): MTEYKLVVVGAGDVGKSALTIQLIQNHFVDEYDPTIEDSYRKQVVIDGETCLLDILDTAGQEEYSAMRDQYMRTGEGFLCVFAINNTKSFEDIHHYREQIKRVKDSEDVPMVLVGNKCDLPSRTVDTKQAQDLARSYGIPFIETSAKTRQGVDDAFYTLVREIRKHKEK
Sequence of KRAS G13D (P62937 whole entry): as the sequence (P62937 whole entry) above
Sequence of KRAS G12D (P01116 1-169 isoform P01116-2 G12D limits assumed): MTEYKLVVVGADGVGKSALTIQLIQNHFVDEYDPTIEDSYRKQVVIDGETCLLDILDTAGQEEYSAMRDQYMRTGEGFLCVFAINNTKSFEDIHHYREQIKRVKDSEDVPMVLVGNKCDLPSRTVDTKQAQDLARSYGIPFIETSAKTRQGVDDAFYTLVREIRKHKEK
Sequence of KRAS G12D (P62937 whole entry, the tested form may be a part): as the sequence (P62937 whole entry) above
Sequence of KRAS WT (P01116 1-169 isoform P01116-2 limits assumed): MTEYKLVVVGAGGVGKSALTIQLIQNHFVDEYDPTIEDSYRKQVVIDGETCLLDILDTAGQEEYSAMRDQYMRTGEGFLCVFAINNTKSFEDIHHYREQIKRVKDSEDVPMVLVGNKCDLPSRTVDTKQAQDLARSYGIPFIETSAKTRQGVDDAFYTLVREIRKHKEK
Sequence of KRAS WT (P62937 whole entry): as the sequence (P62937 whole entry) above

As to `CCn1c(-c2cccnc2[C@H](C)OC)c2c3cc(ccc31)-c1cc(O)cc(c1)C[C@H](NC(=O)[C@H](C(C)C)N(C)C(=O)CN(C)C(=O)[C@H]1CN1)C(=O)N1CCC[C@H](N1)C(=O)OCC(C)(C)C2` (single isomer, unassigned) [Example 42B], the IC50 at KRAS G12D (KRAS G12D FRET data IC50, Ras-Raf disruption) was 1000 to 10000 nM; against KRAS G12S (KRAS G12S FRET data IC50, Ras-Raf disruption) it was 1000 to 10000 nM; against KRAS G12V (KRAS G12V FRET data IC50, Ras-Raf disruption), 1000 to 10000 nM; on KRAS G13C (KRAS G13C FRET data IC50, Ras-Raf disruption), 100 to 1000 nM; on KRAS G13D (KRAS G13D FRET data IC50, Ras-Raf disruption), 1000 to 10000 nM; against KRAS WT (KRAS WT FRET data IC50, Ras-Raf disruption), 1000 to 10000 nM. In addition, the half-maximal inhibitory concentration (IC50) at NRAS G12C (NRAS G12C FRET data IC50, NRAS G12C) fell in the range of 100 to 1000 nM; against KRAS G12C (KRAS G12C FRET data IC50, Ras-Raf disruption) it was 100 to 1000 nM.

Regarding `CCn1c(-c2cccnc2[C@H](C)OC)c2c3cc(ccc31)-c1cc(O)cc(c1)C[C@H](NC(=O)[C@H](C(C)C)N(C)C(=O)[C@H]1CCN(C(=O)[C@H]3CN3)C1)C(=O)N1CCC[C@H](N1)C(=O)OCC(C)(C)C2` (single isomer, unassigned) [Example 43A], the IC50 on KRAS G12D (setting [1]), at KRAS G12S (setting [2]), at KRAS G12V (setting [3]), at KRAS G13C (setting [4]), on KRAS G13D (setting [5]) and on KRAS WT (setting [6]) was 10 to 100 nM in each case. For the same molecule, the IC50 on NRAS G12C (setting [7]) and on KRAS G12C (setting [8]) was below 10 nM throughout.

With `CCn1c(-c2cccnc2[C@H](C)OC)c2c3cc(ccc31)-c1cc(O)cc(c1)C[C@H](NC(=O)[C@H](C(C)C)N(C)C(=O)[C@H]1CCN(S(=O)(=O)[C@@H]3CN3C)C1)C(=O)N1CCC[C@H](N1)C(=O)OCC(C)(C)C2` (single isomer, unassigned) [Example 56], the IC50 at KRAS G12D (setting [1]) was in the range of 100 to 1000 nM; at KRAS G12S (setting [2]), 100 to 1000 nM; at KRAS G12V (setting [3]) it was 100 to 1000 nM; on KRAS G13C (setting [4]) it was 10 to 100 nM; on KRAS G13D (setting [5]) it was 100 to 1000 nM; on KRAS WT (setting [6]) it was 100 to 1000 nM. In addition, the IC50 on NRAS G12C (setting [7]) was in the range of 100 to 1000 nM; at KRAS G12C (setting [8]) it was 10 to 100 nM.

For `CCn1c(-c2cccnc2[C@H](C)OC)c2c3cc(ccc31)-c1cc(O)cc(c1)C[C@H](NC(=O)[C@H](C(C)C)N(C)C(=O)[C@H]1CCN(S(=O)(=O)[C@H]3CN3C)C1)C(=O)N1CCC[C@H](N1)C(=O)OCC(C)(C)C2` (single isomer, unassigned) [Example 57], the IC50 lay in the range of 1000 to 10000 nM at KRAS G12D (setting [1]); 100 to 1000 nM at KRAS G12S (setting [2]); 100 to 1000 nM at KRAS G12V (setting [3]); 10 to 100 nM on KRAS G13C (setting [4]); 100 to 1000 nM on KRAS G13D (setting [5]); 100 to 1000 nM on KRAS WT (setting [6]). Besides, the IC50 at NRAS G12C (setting [7]) and at KRAS G12C (setting [8]) was 100 to 1000 nM throughout.

Take `CCn1c(-c2cccnc2[C@H](C)OC)c2c3cc(ccc31)-c1cc(O)cc(c1)C[C@H](NC(=O)[C@H](C(C)C)N(C)C(=O)C1CN(S(=O)(=O)[C@@H]3CN3C)C1)C(=O)N1CCC[C@H](N1)C(=O)OCC(C)(C)C2` (single isomer, unassigned) [Example 118]: the IC50 fell in the range of 1000 to 10000 nM at KRAS G12D (setting [1]); 100 to 1000 nM on KRAS G12S (setting [2]); 100 to 1000 nM on KRAS G12V (setting [3]); 10 to 100 nM at KRAS G13C (setting [4]); 100 to 1000 nM on KRAS G13D (setting [5]); 100 to 1000 nM on KRAS WT (setting [6]). Also, the IC50 on NRAS G12C (setting [7]) and at KRAS G12C (setting [8]) was 100 to 1000 nM throughout.

With `CCn1c(-c2cnccc2COC)c2c3cc(ccc31)-c1cccc(c1)C[C@H](NC(=O)[C@H](C(C)C)N(C)C(=O)CCN=C=NCCOC)C(=O)N1CCC[C@H](N1)C(=O)OCC(C)(C)C2` [23 A and B], the IC50 on KRAS G12D (setting [1]) is 1000 to 10000 nM; on KRAS G12S (setting [2]), 1000 to 10000 nM; at KRAS G12V (setting [3]) it was above 10000 nM; at KRAS G13C (setting [4]), 1000 to 10000 nM; on KRAS G13D (setting [5]), above 10000 nM; at KRAS WT (setting [6]) it was 1000 to 10000 nM. Also, the concentration for half-maximal inhibition (IC50) on NRAS G12C (setting [7]) and at KRAS G12C (setting [8]) was 10 to 100 nM in each case.

Regarding `CCn1c(-c2cnccc2COC)c2c3cc(ccc31)-c1cccc(c1)C[C@H](NC(=O)[C@H](C(C)C)N(C)C(=O)CCN=C=NCc1c(OC)cccc1OC)C(=O)N1CCC[C@H](N1)C(=O)OCC(C)(C)C2` [62 A and B], the IC50 on KRAS G12D (setting [1]) is 1000 to 10000 nM; on KRAS G12S (setting [2]), 1000 to 10000 nM; at KRAS G12V (setting [3]) it was above 10000 nM; on KRAS G13C (setting [4]), 1000 to 10000 nM; on KRAS G13D (setting [5]), 1000 to 10000 nM; at KRAS WT (setting [6]), 1000 to 10000 nM. Also, the IC50 on NRAS G12C (setting [7]) and at KRAS G12C (setting [8]) was 1000 to 10000 nM throughout.
